Patent publication US20250361480A1, “REINFORCED ENGINEERED CELLULARIZED-TISSUE” (Ramot at Tel-Aviv University Ltd., priority 2023, published 2025)

Assays:
[1] = previous studies; cells added after crosslinking; cited from earlier work
[2] = test system: Primary human umbilical vein endothelial cells (HUVECs); assay: Cell viability of HUVECs in 2D culture with SOx (PrestoBlue); type: cell-based; conditions: SOx concentrations lower than 0.1% in the culturing medium, 48 hours, FIG. 2C
Experimental: Primary human umbilical vein endothelial cells (HUVECs) (Angio-Proteomie) were maintained in Endothelial Growth Medium (EGM-2) (Lonza) supplemented with an additional 1.5% (v/v) fetal bovine serum (FBS) (Biological Industries). Daily, PrestoBlue™ Cell Viability Reagent (Invitrogen) was added and cells were incubated for a fixed time interval. The medium was then transferred to a clean, opaque tissue culture well plate and fresh medium was added to the cells. The fluorescence was measured at 560/590 nm (Infinite M200 Pro).
Cells were incubated for 48 hours in 2D culture in order to allow toxic effects to become discernable. Data are presented in FIG. 2C as mean±standard deviation (SD), n=4.

[3] = ninhydrin absorbance normalized to control, FIG. 2F
Experimental: Aliquots of hydrogel (1 mL) were taken and either reacted with SOx or used as a control. Samples were lyophilized and then immersed in a 0.05% acetic acid solution (1 mL). To this was added 2% Ninhydrin in ethanol (w/v) (1 mL). The mixture was boiled for 90 minutes. Aliquots were taken and the absorbance of the solution was recorded at 570 nm (Infinite M200 Pro; Tecan, Switzerland).
To determine the ability of SOx to react with an ECM-based hydrogel, the concentration of amine groups present in the ECM before and after exposure to the Sox was assessed. […] Data are presented as mean±SD, n=4. All values were normalized to the average value of the control group. P-values were calculated using a one-tailed, unpaired, parametric t-test assuming that all samples have the same distribution.

[4] = Rheological testing, shear thinning of hydrogel; type: physicochemical, porcine; conditions: 37° C., FIG. 2D
Experimental: Rheological measurements were performed using a Discovery HR-3 Hybrid Rheometer (TA Instruments, DE) with a 20 mm diameter parallel plate geometry and a Peltier plate to maintain the sample temperature. Shear thinning experiments were performed by varying the strain rate while maintaining a fixed strain of 20%.
The mechanical properties of an exemplary native ECM-based hydrogel and of cross-linked hydrogels were assessed by rheological measurements. Shear thinning Measurements were conducted at 37° C. Data are presented as mean±SD, n=3. P-values were calculated using a Comparison of Fits test with an Extra Sum of Squares F-test.

[5] = Compressive (bulk) modulus of hydrogel; type: physicochemical, porcine; conditions: compression, FIG. 2E
Experimental: The compressive modulus measurements were performed using a Discovery HR-3 Hybrid Rheometer (TA Instruments, DE) with a 20 mm diameter parallel plate geometry and a Peltier plate to maintain the sample temperature. Bulk modulus tests were performed by compressing the samples at a fixed rate of 100 μm s^−1.
Alongside the rheological testing, the bulk mechanical properties of the hydrogel were also assessed. Samples were compressed, and the linear elastic modulus was calculated. Data are presented as mean±SD, n=3.

Substance: Oxidized sucrose [SOx]
- toxicity when used to cross-link non-cellularized scaffolds [1]: reduced toxicity profile
- impact on cell viability [2]: no impact on cell viability
- amines of the hydrogel that had reacted with the cross-linker [3]: 46%
- gel viscosity, further change when increasing the SOx concentration ([4]; SOx raised from 0.03% to 0.07%): smaller increase
- gel viscosity versus control gel ([4]; hydrogel cross-linked with 0.03% SOx): large increase in gel viscosity
- hydrogel bulk modulus (linear elastic modulus) with and without exposure to SOx [5]: significant reinforcement of the hydrogel
